This note sets out measurements from US9980942B2, “Rejuvenation of precursor cells” (Children's Hospital Medical Center, priority 2012, dated 2018).

Structures are written as SMILES. “Also recorded” adds a separate entry of the source.

In one experiment the test system is skin epithelium. In words: In vivo rejuvenation of skin epithelium (immunohistochemistry, skin thickness). Further details: species or system mice. As for the experimental part:
To test the extent to which CASIN rejuvenates skin and intestinal epithelium in vivo, aged (22-24 month old B1 6) and young (10-12 week old B1 6) mice were injected with CASIN twice daily (2.4 mg/Kg in PBS and 15% EtOH). A group of control mice in each age group were not given the drug. The injections were given 6 hours apart for 5 days. After 28 days, the mice were sacrificed and skin and intestinal samples were processed for immunohistochemistry.
To further assess the effects of in vivo administration of CASIN on aging parameters in the skin, aged mice were treated with CASIN as described in Example 5. The treated and untreated aged and young mice were then tested for skin thickness.

Experiment [1] in a line: Weight of young and aged mice after CASIN. It is filed as in vivo, C57BL/6 mice. The following applies: aged mice, 2.4 mg/kg twice a day for 5 days intraperitoneal, after 1 week. As for the experimental part:
CASIN was given at a dose of 2.4 mg/kg twice a day 6 hours apart for 5 days via intraperitoneal injection in both young (10-12 wk old) and aged (22-24 month old) C57BL/6 mice. Aged C57BL/6 mice present with elevated Cdc42 activity in multiple tissues. Weight of the mice was determined in the young and aged control group (no CASIN, just vehicle (PBS/15% Ethanol)) at initiation of the experiment and after 1 week, as well as in the CASIN treated groups (young and aged) at initiation and 1 week after.

For the next experiment, the system named is aged LT-HSCs. In words: Apoptosis and cell cycle staining (Hoechst/Pyronin Y, Annexin V). It is filed as cell-based, mouse. The following applies: 5 μM CASIN, 16 hrs. As for the experimental part: Hoechst/PY staining was performed as previously described (Passegue et al., 2005). Briefly, 25,000 FACS-sorted LT-HSCs were incubated for 16 hrs in HBSS+10% FBS±CASIN (5 μM) in a water jacketed incubator at 37° C., 5% CO2, 3% O2. Then HOECHST 33342 (Invitrogen) was added directly to the medium at a final concentration of 20 μg/ml and samples were kept in incubation at 37° C., 5% CO2, 3% O2 for 45 min. PironinY (Sigma-Aldrich) was then added at a concentration of 1 μg/ml, and cells were incubated for additional 15 minutes. Cells were resuspended and incubated with anti-Annexin V (BD Pharmingen) according to manufacturer's instruction, washed and immediately analyzed on a LSRII (BD Biosciences).

Turning to `OCCNC1CCCc2c1[nH]c1ccc(-c3ccccc3)cc21` (centres unmarked) [CASIN], in the experiment on skin epithelium (aged mice treated as in Example 5), the skin thickness result is on record as “approximately equal to that of young mice”. Besides, the “number and density of hair follicles” value in the experiment with skin epithelium (aged mice, 2.4 mg/Kg twice daily for 5 days, after 28 days, vs untreated aged mice) is “marked improvement”. Also, in experiment [1], the weight result is “significant reduction; also recorded: weight loss”. Further, in the experiment on aged LT-HSCs, the apoptosis entry was “did not alter; also recorded: doesn't alter” and the cell cycle status entry is “did not alter; also recorded: doesn't alter”.
